{
  "source": "ChEMBL document CHEMBL3244056",
  "about": "“Synthesis and some pharmacological properties of [4-threonine, 7-glycine]oxytocin, [1-(L-2-hydroxy-3-mercaptopropanoic acid), 4-threonine, 7-glycine]oxytocin (hydroxy[Thr4, Gly7]oxytocin), and [7-Glycine]oxytocin, peptides with high oxytocic-antidiuretic selectivity” (J Med Chem, 1977)",
  "key": {"Rattus norvegicus [1]": {"species": "Rattus norvegicus", "assay": "Oxytocic potency in rat assessed as milk ejection", "type": "functional"}, "Rattus norvegicus [2]": {"species": "Rattus norvegicus", "assay": "Vasopressor activity in rat", "type": "ADME, organism-based", "conditions": "in vivo"}, "[3]": {"assay": "Retardation factor, Rf value of the compound in butan-1-ol-water (3.5% in acetic acid, 1.5% in pyridine) (1:1 v/v,upper phase) solvent system", "type": "physicochemical", "conditions": "buffer"}, "Rattus norvegicus [4]": {"system": "Rattus norvegicus", "assay": "Antidiuretic activity in iv dosed rat", "type": "ADME, organism-based, Urine", "conditions": "in vivo"}, "[5]": {"assay": "Oxytocic potency in rat by mammary strip assay", "type": "functional"}, "[6]": {"assay": "Oxytocic potency in rat by uterus assay", "type": "functional"}, "[7]": {"assay": "Retardation factor, Rf value of the compound in butan-1-ol-acetic acid-water (4:1:5 v/v, upper phase) solvent system", "type": "physicochemical", "conditions": "buffer"}, "Rattus norvegicus [8]": {"species": "Rattus norvegicus", "assay": "Ratio of oxytocic potency to antidiuretic activity in rat", "set-up": "species or system Urine"}, "[9]": {"assay": "Retardation factor, Rf value of the compound in butan-1-ol-acetic acid-water-ethyl acetate (1:1:1:1 v/v) solvent system", "type": "physicochemical", "conditions": "buffer"}, "[10]": {"assay": "Retardation factor, Rf value of the compound in butan-1-ol-acetic acid-water-pyridine (15:3:3:10v/v) solvent system", "type": "physicochemical", "conditions": "buffer"}, "[11]": {"assay": "Oxytocic potency in rat by uterus assay in presence of 0.5 mM Mg2+", "type": "functional"}, "Oryctolagus cuniculus": {"species": "Oryctolagus cuniculus", "assay": "Oxytocic potency in rabbit assessed as milk ejection", "type": "functional"}},
  "note": "Starred links: 1 amine or outer side, 2 acyl side, 3 side chain; linkers in the order of their positions; H or OH if unused. Positions of bridges follow the written chain, without caps; N, C: chain ends. Residues, ends and D or L forms follow the SMILES beside them. X1 = O=C([C@H](O)CS[*:2])[*:1]",
  "data": [
    {"smiles": "CC[C@H](C)[C@@H]1NC(=O)[C@H](Cc2ccc(O)cc2)NC(=O)[C@@H](N)CSSC[C@@H](C(=O)NCC(=O)N[C@@H](CC(C)C)C(=O)NCC(N)=O)NC(=O)[C@H](CC(N)=O)NC(=O)[C@H](CCC(N)=O)NC1=O", "note": "(H-CYIQNCGLG-NH2; disulfide 1-6)", "values": [
      {"measurement": "Activity", "setting": "Rattus norvegicus [1]", "result": 392, "unit": "U/mg"},
      {"measurement": "Activity", "setting": "Rattus norvegicus [2]", "result": "< 0.01", "unit": "U/mg"},
      {"measurement": "Rf", "setting": "[3]", "result": 0.17},
      {"measurement": "Activity", "setting": "Rattus norvegicus [4]", "result": 0.0056, "unit": "U/mg"},
      {"measurement": "Activity", "setting": "[5]", "result": 478, "unit": "U/mg"},
      {"measurement": "Activity", "setting": "[6]", "result": 65, "unit": "U/mg"},
      {"measurement": "Rf", "setting": "[7]", "result": 0.3},
      {"measurement": "Ratio", "setting": "Rattus norvegicus [8]", "result": 16600},
      {"measurement": "Rf", "setting": "[9]", "result": 0.74},
      {"measurement": "Rf", "setting": "[10]", "result": 0.75},
      {"measurement": "Activity", "setting": "[11]", "result": 965, "unit": "U/mg"}
    ]},
    {"smiles": "CC[C@H](C)[C@@H]1NC(=O)[C@H](Cc2ccc(O)cc2)NC(=O)[C@@H](N)CSSC[C@@H](C(=O)NCC(=O)N[C@@H](CC(C)C)C(=O)NCC(N)=O)NC(=O)[C@H](CC(N)=O)NC(=O)[C@H]([C@@H](C)O)NC1=O", "note": "(H-CYITNCGLG-NH2; disulfide 1-6)", "values": [
      {"measurement": "Activity", "setting": "Rattus norvegicus [1]", "result": 802, "unit": "U/mg"},
      {"measurement": "Activity", "setting": "Rattus norvegicus [2]", "result": "< 0.01", "unit": "U/mg"},
      {"measurement": "Rf", "setting": "[3]", "result": 0.27},
      {"measurement": "Activity", "setting": "Rattus norvegicus [4]", "result": 0.002, "unit": "U/mg"},
      {"measurement": "Activity", "setting": "[5]", "result": 490, "unit": "U/mg"},
      {"measurement": "Activity", "setting": "[6]", "result": 166, "unit": "U/mg"},
      {"measurement": "Rf", "setting": "[7]", "result": 0.37},
      {"measurement": "Ratio", "setting": "Rattus norvegicus [8]", "result": 83000},
      {"measurement": "Rf", "setting": "[9]", "result": 0.85},
      {"measurement": "Rf", "setting": "[10]", "result": 0.83},
      {"measurement": "Activity", "setting": "[11]", "result": 857, "unit": "U/mg"}
    ]},
    {"smiles": "CC[C@H](C)[C@@H]1NC(=O)[C@H](Cc2ccc(O)cc2)NC(=O)[C@H](O)CSSC[C@@H](C(=O)N2CCC[C@H]2C(=O)N[C@@H](CC(C)C)C(=O)NCC(N)=O)NC(=O)[C@H](CC(N)=O)NC(=O)[C@H]([C@@H](C)O)NC1=O", "note": "(YITNCPLG-NH2; linker N-5 via X1)", "values": [
      {"measurement": "Activity", "setting": "Rattus norvegicus [1]", "result": 808, "unit": "U/mg"},
      {"measurement": "Activity", "setting": "Rattus norvegicus [2]", "result": 4.92, "unit": "U/mg"},
      {"measurement": "Activity", "setting": "Rattus norvegicus [4]", "result": 5.3, "unit": "U/mg"},
      {"measurement": "Activity", "setting": "[5]", "result": 378, "unit": "U/mg"},
      {"measurement": "Activity", "setting": "[6]", "result": 4179, "unit": "U/mg"},
      {"measurement": "Ratio", "setting": "Rattus norvegicus [8]", "result": 790},
      {"measurement": "Activity", "setting": "[11]", "result": 937, "unit": "U/mg"}
    ]},
    {"smiles": "CC[C@H](C)[C@@H]1NC(=O)[C@H](Cc2ccc(O)cc2)NC(=O)[C@@H](N)CSSC[C@@H](C(=O)N2CCC[C@H]2C(=O)N[C@@H](CC(C)C)C(=O)NCC(N)=O)NC(=O)[C@H](CC(N)=O)NC(=O)[C@H]([C@@H](C)O)NC1=O", "note": "(H-CYITNCPLG-NH2; disulfide 1-6)", "values": [
      {"measurement": "Activity", "setting": "Rattus norvegicus [1]", "result": 543, "unit": "U/mg"},
      {"measurement": "Activity", "setting": "Rattus norvegicus [2]", "result": 0.43, "unit": "U/mg"},
      {"measurement": "Activity", "setting": "Rattus norvegicus [4]", "result": 1.8, "unit": "U/mg"},
      {"measurement": "Activity", "setting": "[6]", "result": 923, "unit": "U/mg"},
      {"measurement": "Ratio", "setting": "Rattus norvegicus [8]", "result": 510},
      {"measurement": "Activity", "setting": "[11]", "result": 719, "unit": "U/mg"}
    ]},
    {"smiles": "CC[C@H](C)[C@@H]1NC(=O)[C@H](Cc2ccc(O)cc2)NC(=O)[C@H](O)CSSC[C@@H](C(=O)NCC(=O)N[C@@H](CC(C)C)C(=O)NCC(N)=O)NC(=O)[C@H](CC(N)=O)NC(=O)[C@H]([C@@H](C)O)NC1=O", "note": "(YITNCGLG-NH2; linker N-5 via X1)", "values": [
      {"measurement": "Activity", "setting": "Rattus norvegicus [1]", "result": 950, "unit": "U/mg"},
      {"measurement": "Activity", "setting": "Rattus norvegicus [2]", "result": "< 0.01", "unit": "U/mg"},
      {"measurement": "Rf", "setting": "[3]", "result": 0.52},
      {"measurement": "Activity", "setting": "Rattus norvegicus [4]", "result": 0.004, "unit": "U/mg"},
      {"measurement": "Activity", "setting": "[5]", "result": 623, "unit": "U/mg"},
      {"measurement": "Activity", "setting": "[6]", "result": 218, "unit": "U/mg"},
      {"measurement": "Rf", "setting": "[7]", "result": 0.56},
      {"measurement": "Ratio", "setting": "Rattus norvegicus [8]", "result": 54500},
      {"measurement": "Rf", "setting": "[9]", "result": 0.89},
      {"measurement": "Rf", "setting": "[10]", "result": 0.88},
      {"measurement": "Activity", "setting": "[11]", "result": 1002, "unit": "U/mg"}
    ]},
    {"smiles": "CC[C@H](C)[C@@H]1NC(=O)[C@H](Cc2ccc(O)cc2)NC(=O)[C@@H](N)CSSC[C@@H](C(=O)N2CCC[C@H]2C(=O)N[C@@H](CC(C)C)C(=O)NCC(N)=O)NC(=O)[C@H](CC(N)=O)NC(=O)[C@H](CCC(N)=O)NC1=O", "note": "[OXYTOCIN]", "values": [
      {"measurement": "Activity", "setting": "Rattus norvegicus [4]", "result": 4, "unit": "U/mg"},
      {"measurement": "Activity", "setting": "[5]", "result": 533, "unit": "U/mg"},
      {"measurement": "Activity", "setting": "[6]", "result": 520, "unit": "U/mg"},
      {"measurement": "Activity", "setting": "Oryctolagus cuniculus", "result": 543, "unit": "U/mg"},
      {"measurement": "Activity", "setting": "[11]", "result": 486, "unit": "U/mg"}
    ]}
  ]
}
